# Experimental data published in US20260374739A1, “SMALL MOLECULAR WEIGHT CHEMICAL COMPOUND TO ANTAGONIZE EPH-EPHRIN TETRAMERIZATION AND INHIBIT BIDIRECTIONAL SIGNALING” (THE BOARD OF REGENTS OF THE UNIVERSITY OF TEXAS SYSTEM, priority 2022, published 2026).
# “Also recorded” adds a separate entry of the source.
# Experiments:
# [1] = oral bioavailability, IV 3 mg/kg vs PO 30 mg/kg; type: in vivo, mouse; details: PBS
# Description: A20.2×HCl compound was provided to the UT Southwestern PK Core facility and tested for bioavailability after a single dose when either injected intravenous (IV) at 3 mg/kg or provided by oral gavage (PO) at 30 mg/kg using PBS as vehicle. The data on oral gavage is quite impressive and indicates significant levels of A20 persist, especially in the liver, after a single dose.
# To examine the drug-like nature of the disclosed compounds, tests for solubility was conducted.
# [2] = target: pre-formed EphB2-EphrinB2 tetramer (Mus musculus, UniProt P54763); assay: Octet competition of pre-existing tetramers, mouse EphB2-EphrinB2; type: binding; details: 2, 10, 50 μM
# Sequence of pre-formed EphB2-EphrinB2 tetramer (P54763 19-543 limits assumed): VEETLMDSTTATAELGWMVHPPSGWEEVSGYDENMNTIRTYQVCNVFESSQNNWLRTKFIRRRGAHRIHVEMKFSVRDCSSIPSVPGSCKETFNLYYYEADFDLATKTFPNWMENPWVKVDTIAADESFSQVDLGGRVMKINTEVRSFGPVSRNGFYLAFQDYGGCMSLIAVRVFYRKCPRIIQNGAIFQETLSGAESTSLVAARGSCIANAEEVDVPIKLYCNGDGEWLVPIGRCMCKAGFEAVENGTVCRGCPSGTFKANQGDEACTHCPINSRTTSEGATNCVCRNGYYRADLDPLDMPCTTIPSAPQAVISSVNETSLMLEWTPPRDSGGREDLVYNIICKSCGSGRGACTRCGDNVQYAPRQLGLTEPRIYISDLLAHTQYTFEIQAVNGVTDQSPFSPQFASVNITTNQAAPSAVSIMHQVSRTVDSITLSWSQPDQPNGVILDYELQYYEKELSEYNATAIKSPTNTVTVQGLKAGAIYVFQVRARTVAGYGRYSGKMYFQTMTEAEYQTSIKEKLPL
# Description: (§1) Biophysical studies were conducted to explore if A20 is able to disrupt pre-existing stable tetramers, focusing on interactions of immobilized human EphrinB2 binding to soluble human EphB1 and EphB2, and immobilized mouse EphB2 binding to mouse EphrinB2 (FIGS. 29A-29C). In these experiments, sensor-chip immobilized proteins were first exposed to 50 nM of their soluble target protein for an 800 sec association step and 1,000 sec dissociation step to generate pre-formed stable tetramers, which were then subjected to a 1,000 sec competition step that included either 0, 2, 10, or 50 μM concentrations of A20 salt compound. […] The ability of A20 to disrupt pre-existing tetramers was most pronounced for human EB2-EphB2 and cognate murine EphB2-EB2 experiments and indicated a gradual ongoing dose-dependent decline in tetramers throughout the 1,000 sec competition step (and beyond if allowed) and irrespective of whether the human EphrinB2 or murine EphB2 was the immobilized protein.
# [3] = test system: EphB2-His-Fc; assay: single-protein counter ELISA; details: 5 μM
# Description: The 32 hits were then subjected to ELISA in which EphB1-Fc was first immobilized in 96 well Protein A plates, then soluble EB2-His was added with hit compound in triplicate, again at 5 μM. After 2 hr at RT to allow EB2-His binding to EphB1-Fc, wells were washed, incubated with nickel-activated horseradish peroxidase (HisProbe-HRP) to detect bound EB2-His protein, washed, and then incubated with ELISA Pico Chemiluminescent Substrate (both from Thermo-Fisher) before being read in a luminometer. A single-protein counter ELISA using the dual-tagged EphB2-His-Fc ectodomain protein was also run. […] For simplicity, we call this compound A20.
# [4] = multi-day IP dosing tolerability; type: in vivo, mouse; details: multi-day dosing every 12 hr, up to 40 mg/kg
# [5] = target: pre-formed EphrinB2-EphB2 tetramer (Homo sapiens, UniProt P29323); assay: Octet competition of pre-existing tetramers, human EphrinB2-EphB2; type: binding; details: 2, 10, 50 μM
# Sequence of pre-formed EphrinB2-EphB2 tetramer (P29323 19-543 limits assumed): as the sequence (P54763 19-543 limits assumed) above, with L104S, N154S, K520Q counted along it
# Description: as §1
# [6] = test system: EphB2, Cos1 cells; assay: ligand:receptor cluster (spot) formation in Cos1 cells, immunofluorescence; type: cell-based; details: A20 40 μM; listed as A20
# Description: FIG. 14 depicts representative fluorescent images and quantification showing that Cos1 cells exposed to pre-clustered EB2-Fc binds to EphB2 forming spots on the cell (green) that also contain phosphotyrosine (red, arrows).
# To assess if A20 would reduce the ability of EphrinB2 to stimulate activation of the EphB tyrosine kinase domain in live cells, Cos1 cells that express endogenous EphB2 were exposed to pre-clustered EB2-Fc ectodomains in the presence or absence of A20 for 30 min. […] Stimulated cells were fixed on the coverslip and subjected to immunofluorescence (IF) with anti-Fc antibodies to detect ligand protein bound to receptor, which leads to formation of circular Eph-Ephrin tetramers that then cluster into large obvious spots on the cell surface by lateral migration through the plasma membrane and also contain anti-phosphotyrosine signal indicating activation of the receptor's kinase domain.
# [7] = target: EphB2-EphrinB2 tetramer (Homo sapiens, UniProt P29323); assay: mass photometry; type: binding, mouse EphrinB2; details: 216 kDa without
# Sequence of EphB2-EphrinB2 tetramer (P29323 19-543 limits assumed): as the sequence (P54763 19-543 limits assumed) above, with L104S, N154S, K520Q counted along it
# Description: To verify the kinetic studies using the Octet system, mass photometry (MP) that uses optical detection to measure the mass of individual proteins and protein complexes in solution was employed. MP was used to determine the mass of EphB2 and EphrinB2 ectodomain proteins individually or after being combined and allowed to associate into tetramers for a 24 hr period either without or with 10 or 50 μM concentrations of the A20 salt (FIG. 26). For these experiments His-tagged proteins, human hEphB2-His and murine mEB2-His were used. […] During MP experiments EphB2 and EB2 when analyzed alone would each measure as a homodimer, and when the EphB2 and EphrinB2 proteins are combined, the average mass of the protein species shifted to a larger 216 kDa species (FIG. 26C). The size was as expected if two EphB2 and two EphrinB2 molecules complexed together into the stable circular tetramer (130+83=213 kDa). […] It is important to understand that the MP experiments described here are powerful, but also temporally limited because we can really only assess the protein species after interaction homeostasis has been achieved and for this experiment the proteins and A20 were allowed to incubate together for 24 hr before masses were determined.
Structure (SMILES),oral bioavailability [1],competition of pre-formed tetramers [2],counter ELISA signal [3],tolerability [4],competition of pre-formed tetramers [5],ligand:receptor clusters on cell [6],average mass of protein species ([7]; 10 μM A20 salt) [kDa],average mass of protein species ([7]; 50 μM A20 salt) [kDa]
"Oc1c(Br)cc(CN2CCOCC2)c2cccnc12 [Compound 6, 4-((7-bromo-8-hydroxyquinolin-1-ium-5-yl)methyl)morpholin-4-ium chloride]",orally bioavailable,,,,,,,
"Oc1c(Br)cc(CN2CCOCC2)c2cccnc12 [Compound 5, 7-bromo-5-(morpholinomethyl)quinolin-8-ol]",,able to compete away in a dose-dependent manner a significant amount of the stable pre-formed tetramer complexes,had no effect on signal in the single-protein ELISA,well tolerated,able to compete away in a dose-dependent manner a significant amount of the stable pre-formed tetramer complexes,significantly reduced the ability of pre-clustered EB2-Fc to bind/cluster the EphB2 receptor to spots on the cell; also recorded: reduced the number of ligand: receptor clusters per cell,158,150
